# From ChEMBL document CHEMBL5357082, “Identification and Optimization of Small Molecule Pyrazolopyrimidine TLR7 Agonists for Applications in Immuno-oncology” (ACS Med Chem Lett, 2024)
# Key:
# [1] = target: T1, Cytochrome P450 3A4 (Homo sapiens, UniProt P08684); assay: Inhibition of CYP3A4 (unknown origin) using BFC as substrate; assay type: ADME; details: for inhibition (INH): human
# [2] = Metabolic stability in human liver microsomes assessed as compound remaining at 0.5 uM incubated for 10 mins in presence of NADPH by UV absorbance based assay; assay type: ADME, Microsome; details: read-out: Stability
# [3] = target: T1, Cytochrome P450 3A4; assay: Inhibition of CYP3A4 (unknown origin) using BFC as substrate preincubated with compound followed by substrate addition at 5 mins; assay type: ADME
# [4] = target: T2, Cytochrome P450 1A2 (Homo sapiens, UniProt P05177); assay: Inhibition of CYP1A2 (unknown origin); assay type: ADME; details: for inhibition (INH): human
# T2 sequence (P05177 whole entry): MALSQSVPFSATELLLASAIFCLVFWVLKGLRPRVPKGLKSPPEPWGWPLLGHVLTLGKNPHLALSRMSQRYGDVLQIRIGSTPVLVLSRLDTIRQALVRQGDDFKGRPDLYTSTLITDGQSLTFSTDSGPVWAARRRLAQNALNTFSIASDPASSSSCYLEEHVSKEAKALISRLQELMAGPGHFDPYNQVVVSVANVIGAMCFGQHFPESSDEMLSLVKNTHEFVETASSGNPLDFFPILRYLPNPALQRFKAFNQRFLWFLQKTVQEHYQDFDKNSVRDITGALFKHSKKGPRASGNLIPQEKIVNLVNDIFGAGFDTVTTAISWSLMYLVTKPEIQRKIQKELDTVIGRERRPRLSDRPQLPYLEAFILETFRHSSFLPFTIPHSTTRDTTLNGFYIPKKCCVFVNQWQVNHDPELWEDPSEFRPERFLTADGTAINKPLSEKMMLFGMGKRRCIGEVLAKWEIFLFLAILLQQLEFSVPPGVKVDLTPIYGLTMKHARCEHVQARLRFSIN
# [5] = target: Voltage-gated inwardly rectifying potassium channel KCNH2 (Homo sapiens, UniProt Q12809); assay: Inhibition of hERG; assay type: toxicity; details: for inhibition (INH): human
# Voltage-gated inwardly rectifying potassium channel KCNH2, sequence (Q12809 whole entry): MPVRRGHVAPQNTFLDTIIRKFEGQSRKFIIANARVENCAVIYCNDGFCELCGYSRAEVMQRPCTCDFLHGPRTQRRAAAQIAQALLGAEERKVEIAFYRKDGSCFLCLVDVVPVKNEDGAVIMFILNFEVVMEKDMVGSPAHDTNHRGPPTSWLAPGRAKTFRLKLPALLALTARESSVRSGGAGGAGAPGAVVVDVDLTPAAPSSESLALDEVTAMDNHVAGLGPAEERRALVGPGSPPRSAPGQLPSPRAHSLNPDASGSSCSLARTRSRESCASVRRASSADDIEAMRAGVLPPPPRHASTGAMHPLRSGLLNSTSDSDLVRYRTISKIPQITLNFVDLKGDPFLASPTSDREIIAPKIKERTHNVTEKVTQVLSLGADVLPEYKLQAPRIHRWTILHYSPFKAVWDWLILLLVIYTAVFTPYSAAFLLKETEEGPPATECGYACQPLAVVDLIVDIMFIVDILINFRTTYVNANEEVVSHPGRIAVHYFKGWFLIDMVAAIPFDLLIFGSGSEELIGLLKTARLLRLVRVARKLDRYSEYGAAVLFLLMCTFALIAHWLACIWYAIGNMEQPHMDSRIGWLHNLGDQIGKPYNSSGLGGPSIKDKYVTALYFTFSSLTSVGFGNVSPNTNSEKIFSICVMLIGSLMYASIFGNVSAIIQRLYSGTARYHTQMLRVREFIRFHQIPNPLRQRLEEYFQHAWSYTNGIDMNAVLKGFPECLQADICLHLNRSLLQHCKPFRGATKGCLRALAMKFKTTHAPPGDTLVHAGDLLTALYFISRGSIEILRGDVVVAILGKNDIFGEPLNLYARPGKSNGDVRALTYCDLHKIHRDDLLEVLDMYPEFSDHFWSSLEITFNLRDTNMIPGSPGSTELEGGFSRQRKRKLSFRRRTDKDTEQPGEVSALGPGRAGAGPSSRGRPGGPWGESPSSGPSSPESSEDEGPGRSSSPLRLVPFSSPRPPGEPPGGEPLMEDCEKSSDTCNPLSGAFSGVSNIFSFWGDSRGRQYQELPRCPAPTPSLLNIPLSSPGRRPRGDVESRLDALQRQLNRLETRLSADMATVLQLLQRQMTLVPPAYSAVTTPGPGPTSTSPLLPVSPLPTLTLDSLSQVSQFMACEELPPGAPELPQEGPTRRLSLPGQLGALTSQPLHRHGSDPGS
# [6] = Metabolic stability in mouse liver microsomes assessed as compound remaining at 0.5 uM incubated for 10 mins in presence of NADPH by UV absorbance based assay; assay type: ADME, Microsome; details: read-out: Stability
# [7] = target: T3, Cytochrome P450 2C8 (Homo sapiens, UniProt P10632); assay: Inhibition of CYP2C8 (unknown origin); assay type: ADME; details: for inhibition (INH): human
# T3 sequence (P10632 whole entry): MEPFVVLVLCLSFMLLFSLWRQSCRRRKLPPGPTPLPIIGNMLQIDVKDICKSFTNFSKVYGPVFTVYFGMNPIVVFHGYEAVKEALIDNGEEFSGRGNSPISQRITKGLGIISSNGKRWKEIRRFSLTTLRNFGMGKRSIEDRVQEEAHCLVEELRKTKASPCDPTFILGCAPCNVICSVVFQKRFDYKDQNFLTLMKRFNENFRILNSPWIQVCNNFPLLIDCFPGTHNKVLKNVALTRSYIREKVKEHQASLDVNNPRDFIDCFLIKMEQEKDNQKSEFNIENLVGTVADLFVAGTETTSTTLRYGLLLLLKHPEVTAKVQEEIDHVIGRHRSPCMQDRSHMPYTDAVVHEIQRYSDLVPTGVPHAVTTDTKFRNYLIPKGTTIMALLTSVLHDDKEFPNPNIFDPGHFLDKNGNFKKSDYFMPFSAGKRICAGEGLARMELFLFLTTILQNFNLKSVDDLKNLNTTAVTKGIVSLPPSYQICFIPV
# [8] = target: T1, Cytochrome P450 3A4; assay: Inhibition of CYP3A4 (unknown origin) using BFC as substrate preincubated with compound followed by substrate addition at 30 mins; assay type: ADME
# [9] = target: Cytochrome P450 2C19 (Homo sapiens, UniProt P33261); assay: Inhibition of CYP2C19 (unknown origin); assay type: ADME; details: for inhibition (INH): human
# Cytochrome P450 2C19, sequence (P33261 whole entry): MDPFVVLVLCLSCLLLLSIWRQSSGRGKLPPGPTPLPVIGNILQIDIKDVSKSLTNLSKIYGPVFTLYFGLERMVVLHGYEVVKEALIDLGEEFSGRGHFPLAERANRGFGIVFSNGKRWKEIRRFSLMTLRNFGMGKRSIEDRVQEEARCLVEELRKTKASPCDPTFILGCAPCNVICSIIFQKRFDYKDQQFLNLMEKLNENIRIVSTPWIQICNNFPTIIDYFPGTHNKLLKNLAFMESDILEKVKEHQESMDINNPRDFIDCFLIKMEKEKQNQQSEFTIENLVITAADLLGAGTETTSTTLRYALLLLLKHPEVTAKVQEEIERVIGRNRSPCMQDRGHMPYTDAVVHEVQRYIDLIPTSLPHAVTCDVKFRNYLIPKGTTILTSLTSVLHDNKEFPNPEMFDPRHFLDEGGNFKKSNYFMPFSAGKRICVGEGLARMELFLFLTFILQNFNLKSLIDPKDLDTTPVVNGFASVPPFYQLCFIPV
# [10] = target: Cytochrome P450 2C9 (Homo sapiens, UniProt P11712); assay: Inhibition of CYP2C9 (unknown origin); assay type: ADME; details: for inhibition (INH): human
# Cytochrome P450 2C9, sequence (P11712 whole entry): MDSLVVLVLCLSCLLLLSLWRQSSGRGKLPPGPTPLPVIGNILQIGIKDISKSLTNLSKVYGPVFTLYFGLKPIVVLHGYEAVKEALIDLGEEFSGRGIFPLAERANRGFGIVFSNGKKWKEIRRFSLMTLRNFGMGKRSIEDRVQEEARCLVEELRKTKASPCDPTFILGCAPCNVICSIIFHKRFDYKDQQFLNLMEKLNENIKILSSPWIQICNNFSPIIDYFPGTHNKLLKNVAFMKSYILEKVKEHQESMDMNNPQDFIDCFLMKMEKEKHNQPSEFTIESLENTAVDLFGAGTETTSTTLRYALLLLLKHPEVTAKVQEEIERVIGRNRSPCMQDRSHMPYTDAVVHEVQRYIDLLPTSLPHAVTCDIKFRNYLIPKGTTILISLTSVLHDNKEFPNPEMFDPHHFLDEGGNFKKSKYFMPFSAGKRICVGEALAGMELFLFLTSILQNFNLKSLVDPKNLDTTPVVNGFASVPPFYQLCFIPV
# [11] = target: T4, Toll-like receptor 7 (Homo sapiens, UniProt Q9NYK1); assay: Agonist activity at human TLR7 in HEK-Blue hTLR7 cells harboring SEAP reporter transgene incubated for 18 hrs by quanti-blue reagent based assay; assay type: cell-based
# T4 sequence (Q9NYK1 whole entry): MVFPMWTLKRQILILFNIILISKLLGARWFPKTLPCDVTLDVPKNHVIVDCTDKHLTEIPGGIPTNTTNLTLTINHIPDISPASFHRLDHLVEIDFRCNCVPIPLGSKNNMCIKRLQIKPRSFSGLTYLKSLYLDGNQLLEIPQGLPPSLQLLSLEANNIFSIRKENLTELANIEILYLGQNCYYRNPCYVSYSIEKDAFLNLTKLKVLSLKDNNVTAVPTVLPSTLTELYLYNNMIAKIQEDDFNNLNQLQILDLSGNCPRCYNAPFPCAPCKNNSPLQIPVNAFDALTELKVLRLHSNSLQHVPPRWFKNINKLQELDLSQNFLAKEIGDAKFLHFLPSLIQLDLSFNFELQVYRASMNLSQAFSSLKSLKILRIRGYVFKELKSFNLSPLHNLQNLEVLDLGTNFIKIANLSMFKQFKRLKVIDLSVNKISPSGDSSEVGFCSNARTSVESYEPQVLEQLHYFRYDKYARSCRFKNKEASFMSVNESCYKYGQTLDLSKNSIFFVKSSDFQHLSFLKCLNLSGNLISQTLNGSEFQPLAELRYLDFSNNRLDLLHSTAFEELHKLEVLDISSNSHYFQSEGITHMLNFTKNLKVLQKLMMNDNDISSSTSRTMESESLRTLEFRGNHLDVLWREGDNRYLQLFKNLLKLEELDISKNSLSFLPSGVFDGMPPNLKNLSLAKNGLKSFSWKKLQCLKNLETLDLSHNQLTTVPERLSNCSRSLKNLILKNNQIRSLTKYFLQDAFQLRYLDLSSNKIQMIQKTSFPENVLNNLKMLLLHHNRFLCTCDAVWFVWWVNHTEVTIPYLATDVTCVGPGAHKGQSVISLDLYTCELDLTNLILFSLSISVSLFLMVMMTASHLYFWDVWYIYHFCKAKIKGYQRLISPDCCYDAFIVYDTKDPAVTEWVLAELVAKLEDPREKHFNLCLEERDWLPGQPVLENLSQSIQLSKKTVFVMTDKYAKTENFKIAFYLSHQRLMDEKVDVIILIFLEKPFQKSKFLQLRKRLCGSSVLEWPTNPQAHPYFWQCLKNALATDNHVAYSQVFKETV
# [12] = target: Cytochrome P450 2D6 (Homo sapiens, UniProt P10635); assay: Inhibition of CYP2D6 (unknown origin); assay type: ADME; details: for inhibition (INH): human
# Cytochrome P450 2D6, sequence (P10635 whole entry): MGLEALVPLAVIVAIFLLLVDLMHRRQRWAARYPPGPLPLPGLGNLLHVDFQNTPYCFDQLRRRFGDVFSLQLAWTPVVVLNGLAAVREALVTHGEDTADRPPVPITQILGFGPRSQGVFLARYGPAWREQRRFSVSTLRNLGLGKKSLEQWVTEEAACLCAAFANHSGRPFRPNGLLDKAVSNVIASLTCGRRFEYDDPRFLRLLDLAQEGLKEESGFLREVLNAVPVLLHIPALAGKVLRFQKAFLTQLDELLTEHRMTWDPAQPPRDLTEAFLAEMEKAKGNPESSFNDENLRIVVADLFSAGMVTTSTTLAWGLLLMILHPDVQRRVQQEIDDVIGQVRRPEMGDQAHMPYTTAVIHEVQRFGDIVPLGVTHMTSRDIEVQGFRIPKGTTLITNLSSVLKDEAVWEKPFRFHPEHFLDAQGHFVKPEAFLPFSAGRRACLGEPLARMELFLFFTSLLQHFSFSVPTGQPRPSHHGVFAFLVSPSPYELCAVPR
# [13] = target: T5, Toll-like receptor 7 (Mus musculus, UniProt P58681); assay: Agonist activity at mouse TLR7
# T5 sequence (P58681 whole entry): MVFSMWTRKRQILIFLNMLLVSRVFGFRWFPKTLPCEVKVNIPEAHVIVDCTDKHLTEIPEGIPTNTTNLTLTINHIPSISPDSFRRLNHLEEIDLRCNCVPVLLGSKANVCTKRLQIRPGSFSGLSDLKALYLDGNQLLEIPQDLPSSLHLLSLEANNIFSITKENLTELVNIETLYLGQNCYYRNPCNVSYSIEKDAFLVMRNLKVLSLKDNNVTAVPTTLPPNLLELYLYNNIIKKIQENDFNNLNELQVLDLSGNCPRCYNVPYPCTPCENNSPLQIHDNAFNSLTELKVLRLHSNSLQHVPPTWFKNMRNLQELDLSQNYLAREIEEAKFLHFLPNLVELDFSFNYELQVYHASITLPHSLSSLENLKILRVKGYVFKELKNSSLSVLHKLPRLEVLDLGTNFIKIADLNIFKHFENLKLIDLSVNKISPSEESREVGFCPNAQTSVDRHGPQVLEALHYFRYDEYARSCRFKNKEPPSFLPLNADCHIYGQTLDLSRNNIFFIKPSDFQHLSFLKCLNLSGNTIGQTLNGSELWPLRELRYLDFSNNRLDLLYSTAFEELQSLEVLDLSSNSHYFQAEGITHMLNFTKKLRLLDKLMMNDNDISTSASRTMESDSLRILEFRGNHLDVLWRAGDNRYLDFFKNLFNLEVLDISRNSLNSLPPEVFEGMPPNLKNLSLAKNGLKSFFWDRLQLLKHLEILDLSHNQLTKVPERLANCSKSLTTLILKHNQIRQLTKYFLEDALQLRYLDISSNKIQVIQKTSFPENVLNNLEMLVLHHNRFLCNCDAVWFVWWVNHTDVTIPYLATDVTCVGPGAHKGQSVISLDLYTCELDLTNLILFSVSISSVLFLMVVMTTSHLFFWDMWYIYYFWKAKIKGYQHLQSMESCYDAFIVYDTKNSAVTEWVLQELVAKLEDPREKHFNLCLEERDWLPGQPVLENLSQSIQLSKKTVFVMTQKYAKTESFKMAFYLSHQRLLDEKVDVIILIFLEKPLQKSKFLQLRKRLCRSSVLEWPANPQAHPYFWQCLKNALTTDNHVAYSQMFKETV
# [14] = Cytotoxicity against PHA-activated T-cells (unknown origin) assessed as inhibition of IL-2 induced cell proliferation measured after 72 hrs by MTS assay; assay type: toxicity, cell-based
# T1 sequence (P08684 whole entry): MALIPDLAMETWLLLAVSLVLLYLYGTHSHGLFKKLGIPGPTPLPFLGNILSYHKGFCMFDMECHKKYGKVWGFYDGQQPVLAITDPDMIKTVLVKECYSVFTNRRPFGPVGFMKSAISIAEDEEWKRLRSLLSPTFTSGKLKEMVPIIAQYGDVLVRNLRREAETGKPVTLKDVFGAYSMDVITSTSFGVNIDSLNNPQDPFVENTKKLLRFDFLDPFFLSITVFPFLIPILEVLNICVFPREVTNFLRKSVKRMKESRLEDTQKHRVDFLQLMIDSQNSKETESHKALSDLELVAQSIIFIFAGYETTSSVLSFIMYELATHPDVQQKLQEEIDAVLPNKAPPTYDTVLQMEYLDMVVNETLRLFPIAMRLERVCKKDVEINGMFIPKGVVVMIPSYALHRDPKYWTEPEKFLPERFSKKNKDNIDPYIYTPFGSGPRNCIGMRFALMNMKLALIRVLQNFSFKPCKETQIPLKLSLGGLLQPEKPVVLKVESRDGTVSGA
IC50 [1],"remaining at 10 min, 0.5 µM [2]",IC50 [3],IC50 [4],"remaining at 10 min, 0.5 µM [6]",IC50 [7],IC50 [8],IC50 [9],IC50 [10],EC50 [11],IC50 [12],EC50 [13],Compound,inhibition (INH) [5],IC50 at 72 h [14],IC50 [5],also measured
> 20 µM,80%,> 20 µM,> 20 µM,93%,> 20 µM,> 20 µM,> 20 µM,> 20 µM,–,> 20 µM,1.91 µM,CCC[C@@H](CCO)Nc1nc(N)nc2cnn(Cc3ncc(C4=CC5(CCNCC5)C4)cc3OC)c12,–,> 25 µM,10 µM,–
> 20 µM,57%,> 20 µM,> 20 µM,50%,> 20 µM,> 20 µM,> 20 µM,> 20 µM,0.012 µM,> 20 µM,0.029 µM,CCC[C@@H](CCO)Nc1nc(N)nc2cnn(Cc3ncc(C4CCC5(CC4)CN(C4CCOCC4)C5)cc3OC)c12,Not Active,18 µM,–,–
> 20 µM,72%,> 20 µM,> 20 µM,83%,> 20 µM,> 20 µM,> 20 µM,> 20 µM,–,> 20 µM,0.159 µM,CCC[C@@H](CCO)Nc1nc(N)nc2cnn(Cc3ncc(C4=CC5(CCN(C(C)C)CC5)C4)cc3OC)c12,–,16 µM,62 µM,–
> 20 µM,75%,> 20 µM,> 20 µM,86%,> 20 µM,> 20 µM,> 20 µM,> 20 µM,–,> 20 µM,0.127 µM,CCC[C@@H](CCO)Nc1nc(N)nc2cnn(Cc3ncc(C4=CC5(CCN(C6CCOCC6)CC5)C4)cc3OC)c12,–,7.2 µM,> 100 µM,–
–,–,–,–,–,–,–,–,–,–,–,0.626 µM,CCC[C@@H](CCO)Nc1nc(N)nc2cnn(Cc3ncc(C4CC5(C4)CN(C(C)C)C5)cc3OC)c12,Not Active,> 25 µM,–,inhibition (INH) [1]: Not Active; inhibition (INH) [4]: Not Active; inhibition (INH) [7]: Not Active; inhibition (INH) [9]: Not Active; inhibition (INH) [10]: Not Active; inhibition (INH) [12]: Not Active

# The next lines start with the molecule.
Compound,IC50 [1],"remaining at 10 min, 0.5 µM [2]",IC50 [3],IC50 [4],"remaining at 10 min, 0.5 µM [6]",IC50 [7],IC50 [8],IC50 [9],IC50 [10],EC50 [11],IC50 [12],EC50 [13],inhibition (INH) [5],IC50 at 72 h [14],IC50 [5],also measured
CCCCNc1nc(N)nc2c(C3CC3)nn(Cc3ncc(C4CCNCC4)cc3OC)c12,10.1 µM,97%,> 20 µM,> 20 µM,30%,> 20 µM,10.1 µM,> 20 µM,17.6 µM,0.461 µM,> 20 µM,> 5 µM,Not Active,20 µM,–,–
CCCCNc1nc(N)nc2cnn(Cc3ccc(C4CCNCC4)cc3OC)c12,> 20 µM,89%,> 20 µM,> 20 µM,54%,4.97 µM,> 20 µM,9.42 µM,> 20 µM,–,14.2 µM,0.074 µM,–,> 25 µM,4 µM,–
CCCCNc1nc(N)nc2cnn(Cc3ccc(C4CCNCC4)cc3OC(F)F)c12,–,100%,–,–,17%,–,–,–,–,0.087 µM,–,0.465 µM,Not Active,> 25 µM,–,inhibition (INH) [1]: Not Active; inhibition (INH) [4]: Not Active; inhibition (INH) [7]: Not Active; inhibition (INH) [9]: Not Active; inhibition (INH) [10]: Not Active; inhibition (INH) [12]: Not Active
CCCCNc1nc(N)nc2c(C)nn(Cc3ncc(C4CCNCC4)cc3OC)c12,1 µM,95%,1.21 µM,> 20 µM,71%,> 20 µM,1 µM,> 20 µM,> 20 µM,–,> 20 µM,> 5 µM,–,> 25 µM,> 50 µM,–
CCCCNc1nc(N)nc2cnn(Cc3ccc(CNC4CCC4)cc3OC)c12,8.14 µM,45%,14.2 µM,> 20 µM,3%,> 20 µM,–,> 20 µM,> 20 µM,–,1.12 µM,–,–,15 µM,24 µM,–
